# Laboratory results from US20090221559A1 (priority 2005, published 2009).
# What was measured:
# [1] = test system: HCV replicon RNA replication in Huh-7 luc/neo (Huh-Luc) cells; experiment: HCV replicon assay (stable replicon cell reporter assay, luciferase read-out); format: cell-based, HCV type 1b; details: Hepatitis C virus, Huh-7, 72 h, read-out: Replicon Assay EC50 (μM), Huh-Luc cells, incubation of three days, luciferase activity
# Method in brief: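 Huh-7 cells stably carry a bicistronic HCV 1b NS3-NS5B subgenomic replicon with firefly luciferase and neo markers. Cells were plated with compound across a concentration range and incubated three days. Replication was measured as luciferase activity to give dose-response curves.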
# [2] = target: T1, HCV NS5B polymerase (His-tagged, C-terminal 21 amino acid deleted NS5B, HC-J4) (Hepatitis C virus genotype 1b, UniProt O92972); experiment: NS5b polymerase assay (biochemical RdRp assay, 3H-GTP incorporation, SPA beads); parameters: species or system HCV genotype 1b; details: NS5B Polymerase Assay IC50 (μM)
# T1 construct: The cDNA encoding NS5B amino acid 1-570 (HC-J4, genotype 1b); His tag (His6, from pET-21b) (C); made in house; host or cells: E. coli BL21 (DE3)
# Method in brief: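 His-tagged C-terminal-21-aa-deleted NS5B (genotype 1b, HC-J4) at 200 nM was preincubated 15 min at RT with compound on 5′-biotinylated oligo(rG13)/poly(rC) template/primer before NTPs. Reaction with 600 nM GTP plus 0.1 μCi 3H-GTP and 5 mM MgCl2 in Tris pH 7.5 ran 2 h at 25 °C. Stopped with EDTA/SPA beads for incorporation counting.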
# T1 sequence (O92972 2417-3000, looked up, stated change not applied): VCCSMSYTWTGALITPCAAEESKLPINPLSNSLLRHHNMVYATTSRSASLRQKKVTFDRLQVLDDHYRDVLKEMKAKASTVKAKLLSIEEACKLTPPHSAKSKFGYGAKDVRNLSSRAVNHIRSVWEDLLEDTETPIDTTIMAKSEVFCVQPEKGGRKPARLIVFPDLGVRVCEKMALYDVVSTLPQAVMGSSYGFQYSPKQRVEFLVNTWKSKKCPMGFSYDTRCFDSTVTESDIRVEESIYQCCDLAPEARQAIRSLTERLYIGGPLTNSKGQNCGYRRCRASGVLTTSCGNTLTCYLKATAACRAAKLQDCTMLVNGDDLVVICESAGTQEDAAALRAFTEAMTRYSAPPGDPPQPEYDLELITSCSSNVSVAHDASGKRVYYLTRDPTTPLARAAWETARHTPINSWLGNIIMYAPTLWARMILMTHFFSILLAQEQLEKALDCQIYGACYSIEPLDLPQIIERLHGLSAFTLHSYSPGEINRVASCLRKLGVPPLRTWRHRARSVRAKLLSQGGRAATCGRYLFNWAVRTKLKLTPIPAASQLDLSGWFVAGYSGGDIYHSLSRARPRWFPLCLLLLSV
Compound,EC50 [1],IC50 [2]
COc1ccc(C2CC(=O)C3=C(C2)Nc2ccccc2NC3c2ccccc2C(F)(F)F)cc1 (centres unmarked) [compound 324],18.5 µM,> 42.6 µM
O=C1CC(c2ccccc2)CC2=C1C(c1ccc(Cl)cc1)Nc1ccccc1N2 (centres unmarked) [compound 325],16.3 µM,> 42.6 µM
COc1ccc(C2CC(=O)C3=C(C2)Nc2ccccc2NC3c2cccc(OCc3ccccc3)c2)cc1 (centres unmarked) [compound 326],4.69 µM,> 33.3 µM
COc1ccc(C2CC(=O)C3=C(C2)Nc2ccccc2NC3c2cccc(F)c2)cc1 (centres unmarked) [compound 327],12.5 µM,> 33.3 µM
COc1ccc(C2CC(=O)C3=C(C2)Nc2ccccc2NC3c2ccc(N(C)C)cc2)cc1 (centres unmarked) [compound 328],22.7 µM,> 42.7 µM
COc1ccc(C2CC(=O)C3=C(C2)Nc2ccccc2NC3c2ccc(C(F)(F)F)cc2)cc1 (centres unmarked) [compound 329],11.1 µM,> 33.3 µM
COc1cccc(C2Nc3ccccc3NC3=C2C(=O)CC(c2ccccc2)C3)c1 (centres unmarked) [compound 330],23.2 µM,> 42.7 µM
COc1ccc(C2CC(=O)C3=C(C2)Nc2ccccc2NC3c2cccc(Oc3ccccc3)c2)cc1 (centres unmarked) [compound 331],7.44 µM,> 42.7 µM
CCOc1ccc(C2Nc3ccccc3NC3=C2C(=O)CC(c2ccc(OC)cc2)C3)cc1 (centres unmarked) [compound 332],9.74 µM,> 42.7 µM
COc1ccc(C2CC(=O)C3=C(C2)Nc2ccccc2NC3c2cc(Br)ccc2OC)cc1 (centres unmarked) [compound 335],11.9 µM,> 42.7 µM
COc1ccc(C2CC(=O)C3=C(C2)Nc2ccccc2NC3c2cc(OC)ccc2OC)cc1 (centres unmarked) [compound 336],13.8 µM,> 42.7 µM
O=C1CC(c2ccc(Cl)cc2)CC2=C1C(c1cccc([N+](=O)[O-])c1)Nc1ccccc1N2 (centres unmarked) [compound 337],17.5 µM,> 42.7 µM
CCCCOc1ccccc1C1Nc2ccccc2NC2=C1C(=O)CC(c1ccccc1)C2 (centres unmarked) [compound 338],16.9 µM,> 42.7 µM
COc1cc(C2Nc3ccccc3NC3=C2C(=O)CC(c2ccccc2)C3)cc(OC)c1OC (centres unmarked) [compound 339],9.15 µM,> 42.7 µM
O=C1CC(c2ccc(Cl)cc2)CC2=C1C(c1ccccc1Cl)Nc1ccccc1N2 (centres unmarked) [compound 340],5.09 µM,> 42.7 µM
COc1cc(C2Nc3ccccc3NC3=C2C(=O)CC(c2ccc(Cl)cc2)C3)cc(Br)c1O (centres unmarked) [compound 342],4.19 µM,> 42.7 µM
O=C1CC(c2ccccc2)CC2=C1C(c1ccc(C(F)(F)F)cc1)Nc1ccccc1N2 (centres unmarked) [compound 343],11 µM,> 42.7 µM
Cc1ccc(C2Nc3ccccc3NC3=C2C(=O)CC(c2ccccc2)C3)cc1 (centres unmarked) [compound 344],21.6 µM,> 42.7 µM
O=C1CC(c2ccccc2)CC2=C1C(c1ccccc1Br)Nc1ccccc1N2 (centres unmarked) [compound 345],21 µM,> 42.7 µM
O=C1CC(c2ccc(Cl)cc2)CC2=C1C(c1cccc(Cl)c1Cl)Nc1ccccc1N2 (centres unmarked) [compound 346],24.6 µM,> 42.7 µM
COc1cccc(C2Nc3ccccc3NC3=C2C(=O)CC(c2ccccc2)C3)c1OC (centres unmarked) [compound 347],20.7 µM,> 42.7 µM
COc1cccc(C2Nc3ccccc3NC3=C2C(=O)CC(c2ccc(Cl)cc2)C3)c1OC (centres unmarked) [compound 348],4.48 µM,29.6 µM
O=C1CC(c2ccc(Cl)cc2)CC2=C1C(c1ccccc1C(F)(F)F)Nc1ccccc1N2 (centres unmarked) [compound 349],2.86 µM,> 42.7 µM
O=C1CC(c2ccc(Cl)cc2)CC2=C1C(c1cccc(Cl)c1)Nc1ccccc1N2 (centres unmarked) [compound 350],5.21 µM,25.1 µM
COc1ccc(C2Nc3ccccc3NC3=C2C(=O)CC(c2ccc(Cl)cc2)C3)cc1OC (centres unmarked) [compound 352],9.61 µM,> 42.7 µM
CCOc1cc(C2Nc3ccccc3NC3=C2C(=O)CC(c2ccc(Cl)cc2)C3)cc(Br)c1O (centres unmarked) [compound 353],5.3 µM,> 42.7 µM

Compound,EC50 [1],IC50 [2]
Cc1cccc(C2Nc3ccccc3NC3=C2C(=O)CC(c2ccccc2)C3)c1 (centres unmarked) [compound 354],20.5 µM,> 42.7 µM
O=C1CC(c2ccc(Cl)cc2)CC2=C1C(c1ccc(Cl)c(Cl)c1)Nc1ccccc1N2 (centres unmarked) [compound 355],5.48 µM,> 42.7 µM
COc1ccc(OC)c(C2Nc3ccccc3NC3=C2C(=O)CC(c2ccc(Cl)cc2)C3)c1 (centres unmarked) [compound 356],16.1 µM,> 42.7 µM
COc1ccc(C2CC(=O)C3=C(C2)Nc2ccccc2NC3c2cccc(Cl)c2Cl)cc1 (centres unmarked) [compound 357],7.01 µM,> 42.7 µM
Cc1ccc(C2Nc3ccccc3NC3=C2C(=O)CC(c2ccccc2)C3)cc1[N+](=O)[O-] (centres unmarked) [compound 358],20.4 µM,> 42.7 µM
COc1ccc(C2CC(=O)C3=C(C2)Nc2ccccc2NC3c2ccc(C)c([N+](=O)[O-])c2)cc1 (centres unmarked) [compound 359],7.33 µM,> 42.7 µM
COc1cccc(C2Nc3ccccc3NC3=C2C(=O)CC(c2ccc(Cl)cc2)C3)c1 (centres unmarked) [compound 360],11.2 µM,> 42.7 µM
O=C1CC(c2ccccc2)CC2=C1C(c1cccc(Oc3ccccc3)c1)Nc1ccccc1N2 (centres unmarked) [compound 361],6.65 µM,> 42.7 µM
CSc1ccc(C2Nc3ccccc3NC3=C2C(=O)CC(c2ccccc2)C3)cc1 (centres unmarked) [compound 362],19.3 µM,30.6 µM
CCN(CC)c1ccc(C2Nc3ccccc3NC3=C2C(=O)CC(c2ccc(OC)cc2)C3)cc1 (centres unmarked) [compound 363],25.8 µM,> 42.7 µM
CN(C)c1ccc(C2Nc3ccccc3NC3=C2C(=O)CC(c2ccc(Cl)cc2)C3)cc1 (centres unmarked) [compound 364],20.8 µM,> 42.7 µM
O=C1CC(c2ccccc2)CC2=C1C(c1ccccc1OCc1ccccc1)Nc1ccccc1N2 (centres unmarked) [compound 365],5.24 µM,27.3 µM
O=C1CC(c2ccc(Cl)cc2)CC2=C1C(c1ccccc1OCc1ccccc1)Nc1ccccc1N2 (centres unmarked) [compound 366],5.31 µM,> 42.7 µM
CC(C)c1ccc(C2Nc3ccccc3NC3=C2C(=O)CC(c2ccccc2)C3)cc1 (centres unmarked) [compound 367],24.6 µM,> 42.7 µM
CSc1ccc(C2Nc3ccccc3NC3=C2C(=O)CC(c2ccc4c(c2)OCO4)C3)cc1 (centres unmarked) [compound 368],14.9 µM,> 42.7 µM
COc1ccc(C2CC(=O)C3=C(C2)Nc2ccccc2NC3c2ccccc2OC)cc1OC (centres unmarked) [compound 369],10 µM,> 42.7 µM
COc1ccc(C2CC(=O)C3=C(C2)Nc2ccccc2NC3c2ccccc2OC(C)C)cc1OC (centres unmarked) [compound 370],3.43 µM,> 42.7 µM
COc1ccc(OC)c(C2Nc3ccccc3NC3=C2C(=O)CC(c2ccc(OC)c(OC)c2)C3)c1 (centres unmarked) [compound 371],3.74 µM,> 42.7 µM
COc1ccc(C2CC(=O)C3=C(C2)Nc2ccccc2NC3c2ccc(OC)cc2OC)cc1 (centres unmarked) [compound 372],1.94 µM,> 42.7 µM
O=C1CC(c2ccccc2)CC2=C1C(c1cccc(OCc3ccccc3)c1)Nc1ccccc1N2 (centres unmarked) [compound 373],9.42 µM,> 42.7 µM
COC(=O)c1ccc(C2Nc3ccccc3NC3=C2C(=O)CC(c2ccccc2)C3)cc1 (centres unmarked) [compound 374],10.1 µM,> 42.7 µM
COc1ccc(C2CC(=O)C3=C(C2)Nc2ccccc2NC3c2cc([N+](=O)[O-])ccc2Cl)cc1 (centres unmarked) [compound 375],19.9 µM,> 42.7 µM
CCN(CC)c1ccc(C2CC(=O)C3=C(C2)Nc2ccccc2NC3c2ccccc2)cc1 (centres unmarked) [compound 376],9.45 µM,> 42.7 µM
O=C1CC(c2ccc(Cl)cc2)CC2=C1C(c1ccc(C(F)(F)F)cc1)Nc1ccccc1N2 (centres unmarked) [compound 377],4.46 µM,> 42.7 µM
CCOc1cc(C2Nc3ccccc3NC3=C2C(=O)CC(c2ccc(OC)cc2)C3)cc(Br)c1O (centres unmarked) [compound 378],5.94 µM,> 42.7 µM
CCOc1cccc(C2Nc3ccccc3NC3=C2C(=O)CC(c2ccc(Cl)cc2)C3)c1 (centres unmarked) [compound 379],6.79 µM,> 42.7 µM
